Among the test systems are COLO 205 colon; 786-0 renal; ACHN renal; SF-295 CNS; HL-60(TB) leukemia; SNB-75 CNS; PC-3 prostate; MOLT-4 leukemia; UO-31 renal; A498 renal; SK-MEL-5 melanoma; MDA-MB-231 breast; MDA-N; MCF7 breast; SK-MEL-28 melanoma; HCT-15 colon.
Assay in all cases: NCI tumour cell line growth inhibition, 48 h

Each structure is given as a SMILES string.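 How tested: cells in 96-well plates exposed to compound for 48 hours at five concentrations. Definition used: TGI = concentration required for complete inhibition of growth.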

Take `S=C1NC2=C(COc3ccccc32)C(c2ccc(Cl)cc2)N1` (stereo unspecified): the TGI amounted to 36.9 µM with COLO 205 colon; 34.5 µM in the assay with 786-0 renal; 43.6 µM in the assay on ACHN renal; 29 µM in the assay with SF-295 CNS; 43.3 µM in the assay on HL-60(TB) leukemia; 38 µM in the assay with SNB-75 CNS. Moreover, the TGI is 26.2 µM in the assay on PC-3 prostate; 38.7 µM in the assay on MOLT-4 leukemia; 35.1 µM in the assay with UO-31 renal; 39.1 µM in the assay with A498 renal; 30.5 µM in the assay on SK-MEL-5 melanoma; 34 µM with MDA-MB-231 breast. Besides, the TGI with MDA-N stood at 29.9 µM; with MCF7 breast, 38.4 µM; in the assay on SK-MEL-28 melanoma it was 46.8 µM.
On to `CCOC(=O)c1cc(-n2nnc3ccccc32)cn1C`, for which the TGI in the assay with COLO 205 colon, in the assay on 786-0 renal, in the assay on ACHN renal, in the assay on SF-295 CNS, with HL-60(TB) leukemia and in the assay with SNB-75 CNS was greater than 10 µM in each case. In addition, the TGI with HCT-15 colon, with PC-3 prostate, in the assay on MOLT-4 leukemia, with UO-31 renal, in the assay on A498 renal and in the assay with SK-MEL-5 melanoma was greater than 10 µM in each case. In addition, the TGI with MDA-MB-231 breast, in the assay with MDA-N, in the assay on MCF7 breast and with SK-MEL-28 melanoma was greater than 10 µM throughout.
As to `Cc1nc(SCC(=O)Nc2ccc(Cl)cc2)c2sc(=S)n(-c3ccccc3)c2n1`, the TGI in the assay on COLO 205 colon, in the assay on 786-0 renal, in the assay with ACHN renal, in the assay with SF-295 CNS, in the assay with HL-60(TB) leukemia and in the assay on SNB-75 CNS was greater than 10 µM each time. In addition, the TGI with HCT-15 colon, in the assay on PC-3 prostate, with MOLT-4 leukemia, in the assay with A498 renal, in the assay on SK-MEL-5 melanoma and in the assay on MDA-MB-231 breast was greater than 10 µM each time. Moreover, the TGI with MDA-N, in the assay on MCF7 breast and with SK-MEL-28 melanoma was greater than 10 µM each time.
For `COC(=O)N1CC(=O)C(C(=O)NC23CC4CC(CC(C4)C2)C3)C1` (stereo unspecified), the TGI with COLO 205 colon, with 786-0 renal, in the assay with ACHN renal, in the assay with SF-295 CNS, with HL-60(TB) leukemia and in the assay on HCT-15 colon was greater than 100 µM throughout. Also, the TGI in the assay on PC-3 prostate, in the assay on MOLT-4 leukemia, in the assay on UO-31 renal, in the assay with A498 renal, in the assay with SK-MEL-5 melanoma and in the assay on MDA-MB-231 breast was greater than 100 µM each time. Besides, the TGI in the assay with MDA-N, in the assay with MCF7 breast and in the assay on SK-MEL-28 melanoma was greater than 100 µM throughout.
As for `Cc1cc(S(=O)(=O)N2CCNNC2=O)c(S)cc1Cl`, the TGI in the assay with COLO 205 colon is greater than 100 µM; with 786-0 renal, 43 µM; in the assay on ACHN renal it was greater than 100 µM; in the assay with SF-295 CNS, greater than 100 µM; in the assay on HL-60(TB) leukemia it was greater than 100 µM; in the assay with SNB-75 CNS it was greater than 100 µM. The TGI with HCT-15 colon, in the assay on PC-3 prostate, in the assay with MOLT-4 leukemia, in the assay with UO-31 renal, in the assay with A498 renal and in the assay with SK-MEL-5 melanoma was greater than 100 µM throughout. Moreover, the TGI was 61 µM with MDA-MB-231 breast, greater than 100 µM in the assay on MDA-N, greater than 100 µM with MCF7 breast and 59.6 µM with SK-MEL-28 melanoma.
Consider `CCNC(=O)c1cc(Cl)ccc1NC(=O)C12CC3CC(CC(C3)C1)C2`, for which the TGI is greater than 100 µM with COLO 205 colon; 61 µM in the assay with 786-0 renal; greater than 100 µM in the assay on ACHN renal; greater than 100 µM with SF-295 CNS; greater than 100 µM in the assay with HL-60(TB) leukemia; greater than 100 µM in the assay on HCT-15 colon. For the same molecule, the TGI in the assay on PC-3 prostate was greater than 100 µM; with MOLT-4 leukemia it was greater than 100 µM; in the assay on UO-31 renal it was 56.4 µM; in the assay on A498 renal it was greater than 100 µM; with SK-MEL-5 melanoma, 76.1 µM; in the assay on MDA-MB-231 breast, greater than 100 µM. Further, the values for the TGI in the assay on MDA-N, with MCF7 breast and in the assay on SK-MEL-28 melanoma were 70.9 µM, greater than 100 µM and greater than 100 µM, respectively.
As to `C=CC(O)(CBr)CCC(Br)C(=C)C` (stereo unspecified), the TGI with COLO 205 colon, in the assay on 786-0 renal, in the assay on ACHN renal, in the assay with SF-295 CNS, in the assay with HL-60(TB) leukemia and with SNB-75 CNS was greater than 10 µM in each case. Moreover, the TGI in the assay with HCT-15 colon, in the assay with PC-3 prostate, in the assay on MOLT-4 leukemia, in the assay on A498 renal, in the assay on SK-MEL-5 melanoma and in the assay on MDA-MB-231 breast was greater than 10 µM each time. Moreover, the TGI in the assay with MDA-N, in the assay on MCF7 breast and with SK-MEL-28 melanoma was greater than 10 µM in each case.
Regarding `CSC1NC(c2ccccc2)=C(C#N)C(=O)N1C1OCC(OC(C)=O)C(OC(C)=O)C1OC(C)=O` (stereo unspecified), the TGI with COLO 205 colon, in the assay with 786-0 renal, in the assay on ACHN renal, in the assay on SF-295 CNS, in the assay with SNB-75 CNS and in the assay with HCT-15 colon was greater than 100 µM throughout. In addition, the TGI in the assay with PC-3 prostate, in the assay on MOLT-4 leukemia, in the assay on UO-31 renal, in the assay with A498 renal, in the assay with SK-MEL-5 melanoma and in the assay on MDA-MB-231 breast was greater than 100 µM in each case. The TGI in the assay on MDA-N, with MCF7 breast and in the assay with SK-MEL-28 melanoma was greater than 100 µM throughout.
In the case of `CCc1c2c(cc3c1CC1(C3)Cc3cc4c(c(C(=O)OC)c3C1)CCCC4)CCCC2` (stereo unspecified), the TGI in the assay with COLO 205 colon, in the assay on 786-0 renal, with ACHN renal, in the assay on SF-295 CNS, in the assay with HL-60(TB) leukemia and in the assay on HCT-15 colon was greater than 100 µM throughout. In addition, the TGI in the assay with PC-3 prostate, in the assay with MOLT-4 leukemia, with UO-31 renal, in the assay with A498 renal, with SK-MEL-5 melanoma and in the assay on MDA-MB-231 breast was greater than 100 µM throughout. Also, the TGI in the assay on MDA-N and in the assay with MCF7 breast was greater than 100 µM each time.

Source of the values: PubChem BioAssay (NCI).
